molecular target: T1, MAT2A homodimer (Homo sapiens, UniProt P31153); assay: Biochemical assay: inhibition of recombinant MAT2A homodimer (phosphate release, PiColorLock Gold); details: MAT2A IC50 score; read-out: Enzyme Inhibition
T1 construct: inferred from Ni sepharose purification and imidazole elution; made in house; host or cells: Sf9 insect cells, recombinant baculovirus (Bac to Bac, pFASTBAC1 vector)
Description: Mat2A protein was expressed by recombinant baculovirus in SF9 infected cells using the Bac to Bac system cloned into the pFASTBAC1 vector (Invitrogen, Carlsbad, Calif.). Recombinant MAT2A was isolated from the cell lysate of 150 g of infected cells using HP Ni sepharose column chromatography. Recombinant MAT2A homodimer was eluted with 250 and 500 mM imidazole, and fractions containing MAT2A were identified by sodium dodecyl sulfate polyacrylamide gel electrophoresis and pooled.
For determination of the inhibitory potency of compounds against the MAT2A homodimer, protein was diluted to 4 μg/mL in assay buffer (50 mM Tris, pH 8.0, 50 mM KCl, 15 mM MgCl2, 0.3 mM EDTA, 0.005% [w/v] bovine serum albumin [BSA]). Test compound was prepared in 100% dimethyl sulfoxide (DMSO) at 50× the desired final concentration. A 1 μL volume of compound dilution was added to 40 μL of enzyme dilution and the mixture was allowed to equilibrate for 60 minutes at 25° C. The enzymatic assay was initiated by the addition of 10 μL of substrate mix (500 μM ATP, pH 7.0, 40 μM L-methionine in 1× assay buffer), and the mixture was incubated for a further 60 minutes at 25° C. The reaction was halted and the liberated phosphate released by the enzyme in stoichiometric amounts by the production of S-adenosyl methionine (SAM) was measured using the PiColorLock Gold kit (Innova Biosciences, UK). Absolute product amounts were determined by comparison to a standard curve of potassium phosphate buffer, pH 8.0.

T1 sequence (P31153 whole entry): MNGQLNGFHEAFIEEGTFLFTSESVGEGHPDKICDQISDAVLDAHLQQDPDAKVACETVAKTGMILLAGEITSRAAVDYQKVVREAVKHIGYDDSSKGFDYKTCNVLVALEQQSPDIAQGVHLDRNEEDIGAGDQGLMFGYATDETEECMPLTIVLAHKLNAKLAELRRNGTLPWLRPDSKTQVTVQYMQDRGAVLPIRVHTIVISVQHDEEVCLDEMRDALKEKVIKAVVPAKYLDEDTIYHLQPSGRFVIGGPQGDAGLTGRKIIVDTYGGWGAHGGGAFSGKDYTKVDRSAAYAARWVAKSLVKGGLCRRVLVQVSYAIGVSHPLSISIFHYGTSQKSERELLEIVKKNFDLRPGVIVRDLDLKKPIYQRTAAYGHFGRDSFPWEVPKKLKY

IC50, 100 to 1000 nM:
COc1ccc(-c2cc3cnc(NCC4CC4)nc3n(-c3ccccc3)c2=O)cc1 [Example 102]
COc1ccc(-c2cc3cnc(NCC(F)(F)F)nc3n(-c3ccccc3)c2=O)cc1 [Example 103]
COc1ccc(-c2cc3cnc(NCC(F)(F)F)nc3n(-c3ccncc3)c2=O)cc1 [Example 107]
COc1ccc(-c2cc3cnc(NCC(F)(F)F)nc3n(-c3ccc(OC(F)(F)F)cc3)c2=O)cc1 [Example 109]
COc1ccc(-c2cc3cnc(SC)nc3n(-c3ccc(Cl)cc3)c2=O)cc1 [Example 110]
COc1ccc(-c2cc3cnc(SC)nc3n(-c3ccc(OC)cc3)c2=O)cc1 [Example 113]
COc1ccc(-n2c(=O)c(-c3ccc4ncccc4c3)cc3cnc(SC)nc32)cc1 [Example 114]
COc1ccc(-c2cc3cnc(NCC(F)(F)F)nc3n(-c3ccc(C#N)cc3)c2=O)cc1 [Example 117]
COc1ccc(-c2cc3cnc(NCC(F)(F)F)nc3n(-c3ccc4[nH]ccc4c3)c2=O)cc1 [Example 128]
CCOc1ccc2cc(-c3ccc(OC)cc3)c(=O)n(-c3ccc(OC(F)(F)F)nc3)c2n1 [Example 156]
CNC(=O)c1ccc(-c2cc3cnc(NCC(F)(F)F)nc3n(-c3ccc(OC)cc3)c2=O)cc1 [Example 170, 4-(8-(4-methoxyphenyl)-7-oxo-2-(2,2,2-trifluoroethylamino)-7,8-dihydropyrido[2,3-d]pyrimidin-6-yl)-N-methylbenzamide]
COc1ccc(-n2c(=O)c(-c3ccc(OC)cn3)cc3cnc(NCC(F)(F)F)nc32)cc1 [Example 175]

IC50, 1000 to 10000 nM:
COc1ccc(-c2cc3cnc(S(C)(=O)=O)nc3n(-c3ccccc3)c2=O)cc1 [Example 104]
COc1ccc(-c2cc3cnc(S(C)(=O)=O)nc3n(-c3ccc(O)cc3)c2=O)cc1 [Example 105]
COc1ccc(-c2cc3cnc(SC)nc3n(-c3ccc(OC(F)(F)F)cc3)c2=O)cc1 [Example 108]
COc1ccc(-c2cc3cnc(SC)nc3n(-c3ccc(C(F)(F)F)cc3)c2=O)cc1 [Example 111]

IC50, < 100 nM:
COc1ccc(-c2cc3cnc(NCC(F)(F)F)nc3n(-c3ccc(C(F)(F)F)cc3)c2=O)cc1 [Example 112]
COc1ccc(-c2cc3cnc(NCC(F)(F)F)nc3n(-c3ccc4sccc4c3)c2=O)cc1 [Example 125, 8-(benzo[b]thiophen-5-yl)-6-(4-methoxyphenyl)-2-(2,2,2-trifluoroethylamino)pyrido[2,3-d]pyrimidin-7(8H)-one]
COc1ccc(-c2cc3cnc(NCC(F)(F)F)nc3n(-c3ccc(Cl)cc3)c2=O)cc1 [Example 126]
COc1ccc(-c2cc3ccc(NCC(F)(F)F)nc3n(-c3ccc(C4CC4)cc3)c2=O)cc1 [Example 132]
COc1ccc(-c2cc3ccc(NCC(F)(F)F)nc3n(-c3ccc(Cl)cc3)c2=O)cc1 [Example 133]
COc1ccc(-c2cc3ccc(NCC(F)(F)F)nc3n(-c3ccc(C4CC4)nc3)c2=O)cc1 [Example 134]
CCOc1ccc2cc(-c3ccc(OC)cc3)c(=O)n(-c3ccc(C)nc3)c2n1 [Example 136, 7-ethoxy-3-(4-methoxyphenyl)-1-(6-methylpyridin-3-yl)-1,8-naphthyridin-2(1H)-one]
CCOc1ccc2cc(-c3ccc4nn(C)cc4c3)c(=O)n(-c3ccc(C)nc3)c2n1 [Example 137]
CCOc1ccc2cc(-c3ccc(OC)cc3)c(=O)n(-c3ccc(C(F)(F)F)cc3)c2n1 [Example 141]
CCOc1ccc2cc(-c3ccc(OC)cc3)c(=O)n(-c3cnc(NC)nc3)c2n1 [Example 143]
[2H]C([2H])([2H])Nc1ccc(-n2c(=O)c(-c3ccc4nn(C)cc4c3)cc3ccc(OCC)nc32)cn1 [Example 146]
CCOc1ccc2cc(-c3ccc(OC)cc3)c(=O)n(-c3ccc(Cl)cc3)c2n1 [Example 154]

Reference: patent publication US20220251081A1, “HETEROBICYCLIC INHIBITORS OF MAT2A AND METHODS OF USE FOR TREATING CANCER” (priority 2019, published 2022)
